Where two headings read alike, the source gives them in different places. Marks after values point to notes of the source that are not given here. Where no end group is shown, it is not given here.
Assays:
hOX2 Y232A = test system: hOX2 Y232A; parameters: method as in 2 sources, one per row (each row's own in cited_ref): ref 37 Malherbe et al. ||| ref 37 = [37]; PMID 20404073; doi:10.1124/mol.110.064584; Malherbe P.; Roche O.; Marcuz A.; Kratzeisen C.; Wettstein J. G.; Bissantz C. ( 2010 ) Mapping the Binding Pocket of Dual Antagonist Almorexant to Human Orexin 1 and Orexin 2 Receptors: Compariso; conditions: cited from earlier work; for ratio EC50(mut)/EC50(WT): hOX2 Y232A (5.47) relative to wild type, [Ca2+]i response, ref 37 Malherbe et al.
hOX1 D203A = hOX1 D203A (45.51) relative to wild type, [Ca2+]i response, ref 37 Malherbe et al., cited from earlier work
Description: (§1) Other mutations had no major effect on efficacy.

hOX1 Y224A = hOX1 Y224A (5.47) relative to wild type, [Ca2+]i response, ref 37 Malherbe et al., cited from earlier work
Description: as §1

hOX1 W206A = conditions: cited from earlier work; for ratio EC50(mut)/EC50(WT): hOX1 W206A (45.54) relative to wild type, [Ca2+]i response, ref 37 Malherbe et al.
Description: as §1

hOX1 Y215A = hOX1 Y215A (5.38) relative to wild type, [Ca2+]i response, ref 37 Malherbe et al., cited from earlier work
Description: as §1

hOX1 Y311A = conditions: cited from earlier work
Description: as §1

hOX1 F219A = hOX1 F219A (5.42) relative to wild type, [Ca2+]i response, ref 37 Malherbe et al., cited from earlier work
Description: Other mutations had no major effect on efficacy. || We also explored the role of the conserved F^5.42. […] In the case of OX1, F^5.42 interacts with H26 of OxA that, based on the SDM experiments, has an only moderate impact on potency (see Figure 6A). This is in contrast to OX2 in which F^5.42 interacts with key residue I30 (see Figure 6B). Mutation of I30 of OxA to alanine complet ...

hOX2 Y317A = conditions: cited from earlier work; for ratio EC50(mut)/EC50(WT): hOX2 Y317A (6.48) relative to wild type, [Ca2+]i response, ref 37 Malherbe et al.
Description: D211^45.51 is in the proximity of L19. L19 and L20 form hydrophobic interactions with W214^45.54 and H350^7.39, respectively. […] In the case of OX2, Y223^5.38 forms an interaction with H26 of OxA. F227^5.42 forms a ...

hOX2 H350A = conditions: cited from earlier work; for ratio EC50(mut)/EC50(WT): hOX2 H350A (7.39) relative to wild type, [Ca2+]i response, ref 37 Malherbe et al.
Description: We observed that in OX1, H^7.39 interacts with residues L16 and L20 of helix 1 of OxA (see Figure 6A). […] On the other hand, in OX2, H^7.39 interacts with L20 and not with L16 (see Figure 6B), and ...

hOX2 Q187A = assay: Calcium flux assay, CHO-K1 cells stably expressing Orexin receptor mutant; assay type: cell-based, human; conditions: hOX2 Q187A (4.60) relative to wild type, CHO-K1, Fluo-4AM, this work
Protocol: (§2) A combination of overlap and mismatch polymerase chain reaction (PCR) was used to introduce mutations into the corresponding Orexin-1 and Orexin-2 cDNAs as described by us previously.[62] Each mutation was made via the generation of two overlapping PCR fragments with PfuUltra II Fusion HS DNA Polymerase (Strategene). The two products were extracted, and a second round of PCR was performed via combination of both fragments with 5′ and 3′ gene specific primers (containing BamHI and NotI restriction sites, respectively). The resulting gel-purified products were then cloned into expression vector pFB-Neo for subsequent generation of stable cell lines. Constructs were confirmed via sequencing. Each verified cDNA was subsequently used to generate single, stably expressing clones in the CHO-K1 cell line.
(§3) Standard calcium flux assays were used to assess the functionality of each OX receptor mutant. Each CHO-K1 Orexin mutant was seeded into tissue culture-treated, 384-well, black clear-bottom plates (CellBind Corning 7086), at a density of 7500 cells/well in culture medium and maintained in an incubator (5% CO2 at 37 °C) overnight. The cell medium was removed, and the cells were incubated in 20 μL of assay buffer (4 μM Fluo-4AM in HBSS with 0.1% BSA) for 90 min at 37 °C. After incubation, the dye was removed and 45 μL of fresh buffer, without dye, was applied. Antagonists (5 μL) were applied, and after incubation for an additional 20 min at 37 °C, 20 μL of receptor specific agonists was applied and the calcium flux monitored using a Flex Station (Molecular Devices) over a period of 1 min. In all cases, the EC80 specific for the individual mutant as determined in previous experiments was reported.

hOX1 Y311F = assay: as above; assay type: cell-based, human; conditions: hOX1 Y311F (6.48) relative to wild type, CHO-K1, Fluo-4AM, this work
Protocol: as §2, §3

hOX2 Q134A = assay: as above; assay type: cell-based, human; conditions: hOX2 Q134A (3.32) relative to wild type, CHO-K1, Fluo-4AM, this work
Protocol: as §2, §3

hOX2 F227W = assay: as above; assay type: cell-based, human; conditions: hOX2 F227W (5.42) relative to wild type, CHO-K1, Fluo-4AM, this work
Protocol: as §2, §3

hOX1 Q179A = assay: as above; assay type: cell-based, human; conditions: hOX1 Q179A (4.60) vs wild type, CHO-K1, Fluo-4AM, this work
Protocol: as §2, §3

Substance: Orexin-A (QPLPDCCRQKTCSCRLYELLHGAGNHAAGILTL; ends and bridges not checked; cysteine pairing not given here; UniProt O43612 34-66, looked up) [hypothalamic neuropeptide, 33 amino acids, two intramolecular disulfide bonds C6-C12 and C7-C14; natural OX1/OX2 agonist]
- ratio EC50(mut)/EC50(WT) (hOX2 Y232A): 28.4 ^c fold
- ratio EC50(mut)/EC50(WT) (hOX2 Y232A; listed as OxA): 28.4 fold
- Emax (decreased) (hOX2 Y232A; hOX2 Y232A compared with WT): 44.9%
- ratio EC50(mut)/EC50(WT) (hOX1 D203A): 408.2 ^c fold
- ratio EC50(mut)/EC50(WT) (hOX1 D203A; listed as OxA): 408.2 fold
- ratio EC50(mut)/EC50(WT) (hOX1 Y224A): 84.4 ^c fold
- ratio EC50(mut)/EC50(WT) (hOX1 Y224A; listed as OxA): 84.4 fold
- ratio EC50(mut)/EC50(WT) (hOX1 W206A): 417.8 ^c fold
- ratio EC50(mut)/EC50(WT) (hOX1 W206A; listed as OxA): 417.8 fold
- decrease in the maximal efficacy (Emax) (hOX1 W206A; hOX1 W206A compared with WT): 45.0%
- ratio EC50(mut)/EC50(WT) (hOX1 Y215A): 407.8 ^c fold
- ratio EC50(mut)/EC50(WT) (hOX1 Y215A; listed as OxA): 407.8 fold
- ratio EC50(mut)/EC50(WT) (hOX1 Y311A; hOX1 Y311A (6.48) relative to wild type, [Ca2+]i response, ref 37 Malherbe et al.): 163.9 fold
- decrease in the maximal efficacy (Emax) (hOX1 Y311A; hOX1 Y311A compared with WT): 53.4%
- ratio EC50(mut)/EC50(WT) (hOX1 F219A): 139.6 ^c fold
- ratio EC50(mut)/EC50(WT) (hOX1 F219A; listed as OxA): 139.6 fold
- ratio EC50(mut)/EC50(WT) (hOX2 Y317A): 17.7 ^c fold
- ratio EC50(mut)/EC50(WT) (hOX2 Y317A; listed as OxA): 17.7 fold
- relative Emax (decreases to) (hOX2 Y317A; hOX2 Y317A compared with WT): 49.6%
- decrease in Emax (hOX2 H350A; OX2 H7.39 (H350) mutated to alanine): 63.0%
- ratio EC50(mut)/EC50(WT) (hOX2 H350A): 49.5 ^c fold
- ratio EC50(mut)/EC50(WT) (hOX2 H350A; listed as OxA): 49.5 fold
- ratio EC50(mut)/EC50(WT) (hOX2 Q187A): 1.3 ^d fold
- ratio EC50(mut)/EC50(WT) (hOX1 Y311F): 1.6 ^d fold
- ratio EC50(mut)/EC50(WT) (hOX2 Q134A): 15.1 fold
- ratio EC50(mut)/EC50(WT) (hOX2 F227W): 84.2 ^d fold
- fold improvement in potency relative to wild type (hOX1 Q179A): 17.8 fold improvement

Reference: PMC3880013, “Toward an Understanding of Agonist Binding to Human Orexin-1 and Orexin-2 Receptors with G-Protein-Coupled Receptor Modeling and Site-Directed Mutagenesis” (Biochemistry, 2013)
